{
  "source": "PubChem BioAssay AID1259409",
  "about": "(Chemical Carcinogenesis Research Information System (CCRIS), 2018)",
  "origin": "cited, not measured here",
  "test_system": "rodent chemically induced tumor inhibition, incidence and multiplicity",
  "test": "CCRIS tumor inhibitor studies",
  "data": [
    {"smiles": "Cc1c(C)c2c(c(C)c1O)CC[C@@](C)(CCC[C@H](C)CCC[C@H](C)CCCC(C)C)O2", "values": [
      {"measurement": "tumour outcome (control, treated, inhibition, significance)", "setting": "Carcinogen: 7,12-DIMETHYLBENZ[A]ANTHRACENE, 57-97-6, Dose [Inhibitor]: 0.2% IN HIGH SATURATED FAT DIET DAILY STARTING 29 D BEFORE CARCINOGEN TREATMENT AND CONTINUING FOR DURATION OF STUDY (ST, Route [Inhibitor]: ORAL, Species: RAT, Strain/Sex: SPRAGUE-DAWLEY/FEMALE, Target Tissue: Type of Lesion: MAMMARY GLAND: ADENOCARCINOMA, Dose [Carcinogen]: 10 MG IN 1 ML STRIPPED CORN OIL ONCE AT 50 D OF AGE, Promoter: NONE USED", "value": "65%, 65%, 0%, not calculated"},
      {"measurement": "tumour outcome (control, treated, inhibition, significance)", "setting": "Carcinogen: 7,12-DIMETHYLBENZ[A]ANTHRACENE, 57-97-6, Dose [Inhibitor]: 0.2% IN LOW FAT DIET DAILY STARTING 29 D BEFORE CARCINOGEN TREATMENT AND CONTINUING FOR DURATION OF STUDY (STUDY DURATIO, Route [Inhibitor]: ORAL, Species: RAT, Strain/Sex: SPRAGUE-DAWLEY/FEMALE, Target Tissue: Type of Lesion: MAMMARY GLAND: ADENOCARCINOMA, Dose [Carcinogen]: 10 MG IN 1 ML STRIPPED CORN OIL ONCE AT 50 D OF AGE, Promoter: NONE USED", "value": "35%, 35%, 0%, not calculated"},
      {"measurement": "tumour outcome (control, treated, inhibition, significance)", "setting": "Carcinogen: 7,12-DIMETHYLBENZ[A]ANTHRACENE, 57-97-6, Dose [Inhibitor]: 0.2% IN LOW FAT DIET THROUGHOUT THE EXPERIMENT, (STUDY DURATION: 32 WK), Route [Inhibitor]: ORAL, Species: RAT, Strain/Sex: SPRAGUE-DAWLEY/FEMALE, Target Tissue: Type of Lesion: MAMMARY GLAND: PARENCHYMAL CELL CARCINOMA, Dose [Carcinogen]: 10 MG IN 1 ML CORN OIL AT 50 D OF AGE ONCE, Promoter: NONE USED", "value": "37%, 32%, 14%, not calculated"},
      {"measurement": "tumour outcome (control, treated, inhibition, significance)", "setting": "Carcinogen: 7,12-DIMETHYLBENZ[A]ANTHRACENE, 57-97-6, Dose [Inhibitor]: 0.2% IN SATURATED FAT DIET THROUGHOUT THE EXPERIMENT, (STUDY DURATION: 32 WK), Route [Inhibitor]: ORAL, Species: RAT, Strain/Sex: SPRAGUE-DAWLEY/FEMALE, Target Tissue: Type of Lesion: MAMMARY GLAND: PARENCHYMAL CELL CARCINOMA, Dose [Carcinogen]: 10 MG IN 1 ML CORN OIL AT 50 D OF AGE ONCE, Promoter: NONE USED", "value": "67%, 65%, 3%, not calculated"},
      {"measurement": "tumour outcome (control, treated, inhibition, significance)", "setting": "Carcinogen: 7,12-DIMETHYLBENZ[A]ANTHRACENE, 57-97-6, Dose [Inhibitor]: 43 UG IN 80 µL ACETONE ONCE APPLIED ON BACK 5 MIN PRIOR TO CARCINOGEN DOSE (STUDY DURATION: 4 MO), Route [Inhibitor]: DERMAL, Species: MOUSE, Strain/Sex: ICR/FEMALE, Target Tissue: Type of Lesion: SKIN: TUMOR, Dose [Carcinogen]: 25 UG IN 80 µL ACETONE APPLIED ON BACK, Promoter: CROTON OIL, 8001-28-3", "value": "29/30 (97%), 27/30 (90%), 7%, not significant"},
      {"measurement": "tumour outcome (control, treated, inhibition, significance)", "setting": "Carcinogen: 7,12-DIMETHYLBENZ[A]ANTHRACENE;57-97-6, Dose [Inhibitor]: 200 MG IN 1 ML OLIVE OIL ONCE 1 HR PRIOR TO CARCINOGEN DOSE(STUDY DURATION: 18 WK), Route [Inhibitor]: GAVAGE, Species: RAT, Strain/Sex: SPRAGUE-DAWLEY/FEMALE, Target Tissue: Type of Lesion: MAMMARY GLAND: TUMOR, Dose [Carcinogen]: 12 MG IN 1 ML OLIVE OIL ADMINISTERED 1 HR AFTER INHIBITOR, Promoter: NONE USED", "value": "27/34 (80%), 10/18 (56%), 30%, not significant"},
      {"measurement": "tumour outcome (control, treated, inhibition, significance)", "setting": "Carcinogen: 7,12-DIMETHYLBENZ[A]ANTHRACENE, 57-97-6, Dose [Inhibitor]: 1000 UG APPLIED ONCE 5 MIN PRIOR TO CARCINOGEN DOSE (STUDY DURATION: 28 WK), Route [Inhibitor]: DERMAL, Species: MOUSE, Strain/Sex: CD-1/FEMALE, Target Tissue: Type of Lesion: SKIN: PAPILLOMA, Dose [Carcinogen]: 2.56 UG APPLIED ONCE 5 MIN AFTER INHIBITOR, Promoter: 12-O-TETRADECANOYLPHORBOL-13-ACETATE, 16561-29-8", "value": "82%, 68%, 17%, not calculated"},
      {"measurement": "tumour outcome (control, treated, inhibition, significance)", "setting": "Carcinogen: METHYL(ACETOXYMETHYL)NITROSAMINE, 56856-83-8, Dose [Inhibitor]: 0, 5.8 NMOL IN DRINKING WATER BEGINNING 2 WK PRIOR TO CARCINOGEN AND CONTINUED FOR STUDY DURATION, (STUDY DURATION: 13 M, Dose [Inhibitor]: 0, 5.8 NMOL IN DRINKING WATER BEGINNING 2 WK PRIOR TO CARCINOGEN AND CONTINUED FOR STUDY DURATION, (STUDY DURATION: 13 M, Route [Inhibitor]: ORAL, Species: HAMSTER, Strain/Sex: SYRIAN/FEMALE, Target Tissue: Type of Lesion: ORAL CAVITY: TUMOR, Dose [Carcinogen]: 2 MG/KG BW IN DISTILLED WATER TO RIGHT CHEEK POUCH 2/MO FOR 6 MO (TOTAL DOSE 24 MG/KG), Promoter: NONE USED", "value": "14/15 (93%), 1/15 (7%), 92%, p<0.001"},
      {"measurement": "tumour outcome (control, treated, inhibition, significance)", "setting": "Carcinogen: N-BIS(2-HYDROXYPROPYL)NITROSAMINE, 53609-64-6, Dose [Inhibitor]: 0, 1% IN DIET FOR 30 WK BEGINNING POST CARCINOGEN TREATMENT (STUDY DURATION: 32 WK), Route [Inhibitor]: ORAL, Species: RAT, Strain/Sex: F344/MALE, Target Tissue: Type of Lesion: BLADDER: ADENOMA, Dose [Carcinogen]: 0.1% IN DRINKING WATER FOR 2 WK, Promoter: NONE USED", "value": "5%, 15%, -200%, not calculated"},
      {"measurement": "tumour outcome (control, treated, inhibition, significance)", "setting": "Carcinogen: N-BIS(2-HYDROXYPROPYL)NITROSAMINE, 53609-64-6, Dose [Inhibitor]: 0, 1% IN DIET FOR 30 WK BEGINNING POST CARCINOGEN TREATMENT (STUDY DURATION: 32 WK), Route [Inhibitor]: ORAL, Species: RAT, Strain/Sex: F344/MALE, Target Tissue: Type of Lesion: KIDNEY: TUMOR, Dose [Carcinogen]: 0.1% IN DRINKING WATER FOR 2 WK, Promoter: NONE USED", "value": "10%, 20%, -100%, not calculated"}
    ]}
  ]
}
